In patent US5250524A, “Bile acid derivatives, process for their preparation and use of these compounds as pharmaceuticals” (Hoechst Aktiengesellschaft, priority 1990, dated 1993):
Like-named read-outs stand apart in the source and are kept apart here.

Target: T1, Na^+ -dependent bile acid transport system (Oryctolagus cuniculus, UniProt Q28727)
T1 construct: Preparation of brush-border membrane vesicles from the ileum of rabbits; from tissue; host or cells: brush-border membrane vesicles from the terminal small intestine (ileum) of male New Zealand rabbits
T1 sequence (Q28727 1-347): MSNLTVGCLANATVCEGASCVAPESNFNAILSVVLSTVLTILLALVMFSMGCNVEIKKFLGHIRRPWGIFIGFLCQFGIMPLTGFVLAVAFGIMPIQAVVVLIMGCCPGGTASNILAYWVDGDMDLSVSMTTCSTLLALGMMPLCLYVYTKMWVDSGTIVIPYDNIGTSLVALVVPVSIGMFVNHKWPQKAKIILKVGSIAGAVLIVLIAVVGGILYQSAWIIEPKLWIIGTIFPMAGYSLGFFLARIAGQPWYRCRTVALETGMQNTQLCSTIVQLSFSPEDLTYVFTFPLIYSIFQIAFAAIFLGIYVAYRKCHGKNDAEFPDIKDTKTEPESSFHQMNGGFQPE
Experiment: Inhibition of Na^+ -dependent [^3 H]taurocholate absorption into brush-border membrane vesicles of the ileum
Format: biochemical, rabbit
Conditions: taurocholate 50 μM, pH 7.4, customarily 1 min
Description: The pharmacological data include a series of -tests in which the interaction of the compounds according to the invention with the intestinal bile acid transport system was investigated in the terminal small intestine:
1. Preparation of brush-border membrane vesicles from the ileum of rabbits
The preparation of brush-border membrane vesicles from the intestinal cells of the small intestine was carried out using the so-called Mg^2+ precipitation method. Male New Zealand rabbits (2-2.5 kg body weight) were sacrificed by intravenous injection of 0.5 ml of an aqueous solution of 2.5 mg of tetracaine HCl, 100 T 61® and 25 mg of mebezonium iodide. The small intestine was removed and rinsed with ice-cold physiological saline solution. The terminal […] of the small intestine (measured in the oral-rectal direction, i.e. the terminall ileum, which contains the active Na^+ -dependent bile acid transport system) were used for preparation of the brush-border membrane vesicles. The intestines were frozen at -80° C. under nitrogen in plastic bags. The frozen intestines were thawed in a water bath at 30° C. in order to prepare the membrane vesicles. The mucosa was scraped off and suspended in 60 ml of ice-cold 12 mM trio/HCl buffer (pH 7.1)/300 mM mannitol, 5 mM EGTA/10 mg/l of phenylmethylsulfonyl fluoride/1 mg/1 of soybean trypsin inhibitor (32 U/mg)/0.5 mg/l of bovine lung trypsin inhibitor (193 U/mg)/0.5 mg/l of bacitracin. After diluting to 300 ml with ice-cold distilled water, the suspension was homogenized with ice-cooling for 3 minutes at 75% of maximum power using an Ultraturrax (18 rod, IKA Werk Staufen, Federal Republic of Germany). After addition of 3 ml of 1M MgCl2 solution (final Concentration 10 mM), the homogenate was allowed to stand at 0° C. for exactly 1 minute. As a result of addition of Mg^2+, the cell membranes aggregate and precipitate with the exception of the brush-border membranes. After centrifugation at 3,000×g (5,000 rpm, SS-34 rotor) for 15 minutes, the precipitate is discarded and the supernatant which contains the brush-border membranes is centrifuged at 26,700×g (15,000 rpm, SS-34 rotor) for 30 minutes. The supernatant was discarded, and the precipitate was rehomogenized in 60 ml of 12 mM tris/HCl buffer (pH 7.1)/60 mM mannitol, 5 mM EGTA using a Potter Elvejhem homogenizer (Braun Melsungen, 900 rpm, 10 strokes). After addition of 0.1 ml of 1M MgCl2 solution and an incubation time of 15 minutes at 0° C., the mixture was again centrifuged at 3,000×g for 15 minutes. The supernatant was then again centrifuged at […] ( 15,000 rpm, SS-34 rotor) for 30 minutes. The precipitate was taken up in 30 ml of 10 mM tris/hepes buffer (pH 7.4) /300 mM mannitol and homogeneously resuspended by 20 strokes in a Potter Elvejhem homogenizer at 1,000 rpm. After centrifugation at 48,000×g (20,000 rpm, SS-34 rotor) for 30 minutes, the precipitate was taken up in 0.5 to 2 ml of tris/hepes buffer (pH 7.4)/280 mM mannitol (final concentration 20 mg/ml) and resuspended with the aid of a tuberculin syringe using a 27 gauge needle. The vesicles were either used immediately after preparation for transport investigations or stored at -196° C. in liquid nitrogen in 4 mg portions.
2. Inhibition of Na^+ -dependent [^3 H]taurocholate absorption into brush-border membrane vesicles of the ileum
The absorption of substrates into brush-border membrane vesicles was determined by means of the so-called membrane filtration technique. 10 μl of the vesicle suspension (100 μg of protein) were pipetted on the wall of a polystyrene incubation tube (11×70 mm) as a drop which contained the incubation medium together with the corresponding ligands (90 μl). […]

[1] = IC50, [^3 H]taurocholate absorption, rabbit ileum brush-border membrane vesicles
[2] = IC50 Na, Na^+ -dependent transport component (difference between absorption in Na-T-B and K-T-B)
[3] = Na^+ -dependent transport component (difference between absorption in Na-T-B and K-T-B), read-out: IC50 Na
[4] = [^3 H]taurocholate absorption, rabbit ileum brush-border membrane vesicles, read-out: IC50

SMILES | IC50 [1] [µM] | IC50 [2] [µM] | IC50 [3] [µM] | IC50 [4] [µM]
C[C@H](CCC(=O)NCCCNC(=O)CCC(=O)NCCO[C@H]1CC[C@@]2(C)[C@@H](C1)C[C@@H](O)[C@@H]1[C@@H]2C[C@H](O)[C@]2(C)[C@@H]([C@H](C)CCC(=O)NCCS(=O)(=O)O)CC[C@@H]12)[C@H]1CC[C@H]2[C@@H]3[C@H](O)C[C@@H]4C[C@H](OCc5ccccc5)CC[C@]4(C)[C@H]3C[C@H](O)[C@]12C [172 (taurine conj.)] | 32 | 20 |  | 
C[C@H](CCC(=O)NCC(=O)O)[C@H]1CC[C@H]2[C@@H]3[C@H](O)C[C@@H]4C[C@@H](OCCNC(=O)CCC(=O)NCCCNC(=O)CC[C@@H](C)[C@H]5CC[C@H]6[C@@H]7[C@H](O)C[C@@H]8C[C@H](OCc9ccccc9)CC[C@]8(C)[C@H]7C[C@H](O)[C@]56C)CC[C@]4(C)[C@H]3CC[C@]12C [191 (glycine conj.)] | 27 | 18 |  | 
C[C@H](CCC(=O)NCCS(=O)(=O)O)[C@H]1CC[C@H]2[C@@H]3[C@H](O)C[C@@H]4C[C@@H](OCCNC(=O)CCC(=O)NCCCNC(=O)CC[C@@H](C)[C@H]5CC[C@H]6[C@@H]7[C@H](O)C[C@@H]8C[C@H](OCc9ccccc9)CC[C@]8(C)[C@H]7C[C@H](O)[C@]56C)CC[C@]4(C)[C@H]3CC[C@]12C [191 (taurine conj.)] | 18 | 14 |  | 
C[C@H](CCC(=O)NCCO[C@H]1CC[C@@]2(C)[C@@H](C1)C[C@@H](O)[C@@H]1[C@@H]2C[C@H](O)[C@]2(C)[C@@H]([C@H](C)CCC(=O)NCC(=O)O)CC[C@@H]12)[C@H]1CC[C@H]2[C@@H]3[C@H](O)C[C@@H]4C[C@H](O)CC[C@]4(C)[C@H]3C[C@H](O)[C@]12C [368 (glycine conj.)] | 48 | 16 |  | 
C[C@H](CCC(=O)NCCO[C@H]1CC[C@@]2(C)[C@@H](C1)C[C@@H](O)[C@@H]1[C@@H]2C[C@H](O)[C@]2(C)[C@@H]([C@H](C)CCC(=O)NCCS(=O)(=O)O)CC[C@@H]12)[C@H]1CC[C@H]2[C@@H]3[C@H](O)C[C@@H]4C[C@H](OCc5ccccc5)CC[C@]4(C)[C@H]3C[C@H](O)[C@]12C [369 (taurine conj.)] | 50 | 18 |  | 
C[C@H](CCC(=O)O)[C@H]1CC[C@H]2[C@@H]3[C@H](O)C[C@@H]4C[C@@H](OCCNC(=O)CCC(=O)NCCCNC(=O)CC[C@@H](C)[C@H]5CC[C@H]6[C@@H]7[C@H](O)C[C@@H]8C[C@H](OC(c9ccccc9)c9ccccc9)CC[C@]8(C)[C@H]7C[C@H](O)[C@]56C)CC[C@]4(C)[C@H]3C[C@H](O)[C@]12C [Example 170] |  |  | 14 | 25
C[C@H](CCC(=O)O)[C@H]1CC[C@H]2[C@@H]3[C@H](O)C[C@@H]4C[C@@H](OCCNC(=O)CCC(=O)NCCCNC(=O)CC[C@@H](C)[C@H]5CC[C@H]6[C@@H]7[C@H](O)C[C@@H]8C[C@H](OCc9ccccc9)CC[C@]8(C)[C@H]7C[C@H](O)[C@]56C)CC[C@]4(C)[C@H]3CC[C@]12C [Example 191] |  |  | 29 | 58
C[C@H](CCC(=O)NCCO[C@H]1CC[C@@]2(C)[C@@H](C1)C[C@@H](O)[C@@H]1[C@@H]2C[C@H](O)[C@]2(C)[C@@H]([C@H](C)CCC(=O)O)CC[C@@H]12)[C@H]1CC[C@H]2[C@@H]3[C@H](O)C[C@@H]4C[C@H](O)CC[C@]4(C)[C@H]3C[C@H](O)[C@]12C [Example 368] |  |  | 18 | 45
C[C@H](CCC(=O)NCCO[C@H]1CC[C@@]2(C)[C@@H](C1)C[C@@H](O)[C@@H]1[C@@H]2C[C@H](O)[C@]2(C)[C@@H]([C@H](C)CCC(=O)O)CC[C@@H]12)[C@H]1CC[C@H]2[C@@H]3[C@H](O)C[C@@H]4C[C@H](OCc5ccccc5)CC[C@]4(C)[C@H]3C[C@H](O)[C@]12C [Example 369] |  |  | 20 | 55
C[C@H](CCC(=O)NCCS(=O)(=O)O)[C@H]1CC[C@H]2[C@@H]3[C@H](O)C[C@@H]4C[C@@H](OCCNC(=O)CCC(=O)NCCCNC(=O)CC[C@@H](C)[C@H]5CC[C@H]6[C@@H]7[C@H](O)C[C@@H]8C[C@H](OC(c9ccccc9)c9ccccc9)CC[C@]8(C)[C@H]7C[C@H](O)[C@]56C)CC[C@]4(C)[C@H]3C[C@H](O)[C@]12C [Example 527] |  |  | 10 | 20
C[C@H](CCC(=O)NCC(=O)O)[C@H]1CC[C@H]2[C@@H]3[C@H](O)C[C@@H]4C[C@@H](OCCNC(=O)CCC(=O)NCCCNC(=O)CC[C@@H](C)[C@H]5CC[C@H]6[C@@H]7[C@H](O)C[C@@H]8C[C@H](OC(c9ccccc9)c9ccccc9)CC[C@]8(C)[C@H]7C[C@H](O)[C@]56C)CC[C@]4(C)[C@H]3C[C@H](O)[C@]12C [Example 528] |  |  | 16 | 26
COC(=O)CC[C@@H](C)[C@H]1CC[C@H]2[C@@H]3[C@H](O)C[C@@H]4C[C@@H](OCCNC(=O)CCC(=O)NCCO[C@H]5CC[C@@]6(C)[C@@H](C5)C[C@@H](O)[C@@H]5[C@@H]6C[C@H](O)[C@]6(C)[C@@H]([C@H](C)CCC(=O)OC)CC[C@@H]56)CC[C@]4(C)[C@H]3C[C@H](O)[C@]12C [Example 531] |  |  | 18 | > 50
C[C@H](CCC(=O)O)[C@H]1CC[C@H]2[C@@H]3[C@H](O)C[C@@H]4C[C@@H](OCCNC(=O)CCC(=O)NCCO[C@H]5CC[C@@]6(C)[C@@H](C5)C[C@@H](O)[C@@H]5[C@@H]6C[C@H](O)[C@]6(C)[C@@H]([C@H](C)CCC(=O)O)CC[C@@H]56)CC[C@]4(C)[C@H]3C[C@H](O)[C@]12C [Example 532] |  |  | 10 | 30
